Oligonucleotides are written 5' to 3', each unit as a sugar letter and its base; * is a phosphorothioate linkage, no mark a phosphodiester; rarer units and linkages stand in square brackets, end groups in braces. Plain capitals give the bases only. d = 2'-deoxy (DNA)

These results are taken from patent publication US20180289692A1, “TLR MODULATORS AND METHODS OF USE” (CELGENE CORPORATION, priority 2015, published 2018).

For data set [1], the system named is human pDCs. Put plainly: Surface ICOS-L and PD-L1 expression in CCR6+CD123+ human pDCs by FACS. It is filed as cell-based. Conditions: for increase of COMPOUND (I) induced ICOS-L expression by HCQ: primary human pDCs; for PD-L1 protein induction: 24 hrs, FIG. 2B. The method, then:
To evaluate surface ICOS-L, PD-L1 expression in the CCR6+CD123+ pDC cell subsets, PBMCs were incubated on ice in the presence of Fc-Block (BD Pharmingen) for 20 minutes, washed, and incubated with antibodies specific for surface molecules or isotype-matched control mAbs. APC-labeled anti-human ICOS-L mAb were purchased from BioLegend, PECY-7-labeled anti-human CCR6 mAb, FITC-labeled anti-human PD-L1 mAb and PerCP-Cy5.5 labeled anti-human CD123 mAb were purchased from BD Biosciences. The stained cells were then subjected to FACS (FACSCanto, BD Biosciences) using FACSDiva software. FACS analysis was performed using FlowJo software. Single, viable cells in the CCR6+CD123+ pDC gates were analyzed. The flow cytometric results are expressed as the percentage and MFI of ICOSL-, or PD-L1-expressing cells in each gate.
pDCs were isolated and ICOS-L expression was analyzed as described in Example 2.

For data set [2], the target named is T1, TLR9 (Homo sapiens, UniProt Q9NR96).
T1 construct: expressed in transfected cells; host or cells: TLR9 expressing HEK293 reporter cells with a human NF-κB reporter construct
T1 sequence (Q9NR96 26-1032): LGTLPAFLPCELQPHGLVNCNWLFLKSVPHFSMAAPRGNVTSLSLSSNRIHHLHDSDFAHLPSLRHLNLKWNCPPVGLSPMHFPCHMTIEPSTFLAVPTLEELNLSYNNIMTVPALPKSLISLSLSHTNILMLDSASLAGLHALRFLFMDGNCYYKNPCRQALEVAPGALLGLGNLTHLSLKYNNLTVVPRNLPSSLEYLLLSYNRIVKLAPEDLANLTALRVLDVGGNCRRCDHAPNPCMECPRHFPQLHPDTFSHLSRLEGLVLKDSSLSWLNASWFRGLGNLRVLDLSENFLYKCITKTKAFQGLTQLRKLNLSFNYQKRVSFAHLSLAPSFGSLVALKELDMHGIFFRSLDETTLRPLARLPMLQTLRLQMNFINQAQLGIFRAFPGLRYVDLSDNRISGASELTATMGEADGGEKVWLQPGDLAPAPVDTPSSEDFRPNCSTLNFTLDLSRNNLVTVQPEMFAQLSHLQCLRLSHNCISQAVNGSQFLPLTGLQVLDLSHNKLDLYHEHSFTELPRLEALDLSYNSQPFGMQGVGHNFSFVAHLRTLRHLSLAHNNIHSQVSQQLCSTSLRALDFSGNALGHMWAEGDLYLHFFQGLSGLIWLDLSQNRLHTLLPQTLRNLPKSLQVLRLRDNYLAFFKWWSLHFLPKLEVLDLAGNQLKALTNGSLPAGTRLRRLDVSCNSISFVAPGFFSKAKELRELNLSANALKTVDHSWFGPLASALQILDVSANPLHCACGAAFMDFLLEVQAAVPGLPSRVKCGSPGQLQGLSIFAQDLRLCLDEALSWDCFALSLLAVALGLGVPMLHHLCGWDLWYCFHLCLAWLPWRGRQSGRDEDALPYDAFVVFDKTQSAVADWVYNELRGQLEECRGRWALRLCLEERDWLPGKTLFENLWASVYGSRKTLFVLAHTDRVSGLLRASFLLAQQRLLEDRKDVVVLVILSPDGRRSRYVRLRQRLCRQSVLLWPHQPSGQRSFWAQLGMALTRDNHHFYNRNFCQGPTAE
Put plainly: NF-κB reporter gene in recombinant TLR9-expressing HEK293 cells. The class given is cell-based. Conditions: TLR9-expressing HEK293 cells, FIG. 16A. The protocol: FIGS. 16A-B show results of experiments in which recombinant TLR-expressing HEK293 cells carrying an NF-κB reporter gene were incubated with COMPOUND(I), ODN150, ODN2006, or ODN7040 for 48 hours at the indicated concentrations.

Data set [3] deals with human PBMCs. In words: IL-1β secretion from NOD2 ligand L18-MDP stimulated human PBMCs. The class given is cell-based. The following applies: L-18 MDP 100 ng/ml, FIG. 19. The method, then: PBMCs were isolated from 3 donors of buffy coat (Blood Center of NY) using density gradient centrifugation. The PBMCs were resuspended in RPMI-1640 media supplemented with 10% FBS, 2 mM L-glutamine and 100 units/ml Penicillin and 100 μg/ml Streptomycin. The cells were plated in 96-well flat bottom plates at 250,000 cells/well. […] After 1 hr, the cells were stimulated with and without L-18 MDP at 100 ng/ml (Invivogen, San Diego, Calif.) or 1 ng/ml LPS (Sigma, St. Louis, Mo.). The cells were then incubated for 24 hrs at 37° C., 5% CO2. All compounds or ODNs were resuspended in endotoxin-free water. After 24 hrs, the supernatant was collected and analyzed for cytokine production. The supernatants were analyzed in duplicate for cytokine production in a magnetic multi-plex bead format using the MagPix instrument (Millipore, Billerica, Mass.). IL-1β was tested using a bead-based human cytokine/chemokine kit (Millipore, Cat# HCYTOMAG-60K-09). The manufacturer's procedures were followed accordingly. Data analysis was performed using Milliplex Analyst Software (Millipore).

Data set [4] concerns the target T2, NOD2 (Homo sapiens, UniProt Q9HC29).
T2 construct: host or cells: HEK-Blue NOD2 cells
The following applies: HEK-Blue NOD2 cells; cited from earlier work.

For data set [5], the system named is human pDCs. Put plainly: Intracellular IL-10, TGF-β1 and IDO expression in CCR6+CD123+ human pDCs by FACS. The class given is cell-based. Conditions: 24 hrs, FIG. 2A. The text has this: To evaluate intracellular IL-10, TGFβ 1 and IDO expression in human pDCs, the cells were first stained with PECY-7-labeled anti-human CCR6 mAb (BD Biosciences), PerCP-Cy5.5 labeled anti-human CD123 mAb (BD Biosciences). Stained cells were then fixed and permeabilized using a Cytofix/Cytoperm kit (BD Biosciences) according to the manufacturer's instructions and stained with PE-labeled anti-human IDO (Biolegend), APC-labeled anti-human IL-10 mAb and FITC-labeled anti-human TGF-β1 (BD Biosciences), or isotype-matched control mAbs. The stained cells were acquired by FACSCanto using the FACSDiva software. FACS analysis was performed using FlowJo software. Single, viable cells in the CCR6+CD123+ pDC gates were analyzed. The flow cytometric results are expressed as the percentage and MFI of IL-10-, TGF-β1- or IDO-expressing cells in each gate. Results are expressed as the mean±SEM of cells quantified.
IL10 was alternatively measured in cellular supernatants by ELISA using standard protocols.

In data set [6] the test system is human PBMCs. In words: Cytokine production by human PBMCs treated with ODNs, MagPix Multi-Plex. Conditions: for IFN-γ / IL-1β / IL-6 / IL-10 / IL-12p40 / IP10 / TNF-α: human PBMC, 24 hrs. It is filed as cell-based. The protocol:
PBMC from 3 donors were isolated from Buffy Coat (Blood Center of NY). The cells were washed with PBS and re-suspended in RPMI-1640 Media with 5% Human AB Serum, 1% Pen/Strep and 2 mM L-glutamine. The cells were then plated in 96-well plates at 250,000 cells/well. […] After 24 hrs, the supernatant was harvested and tested for cytokine production using MagPix Multi-Plex Technology. The following cytokines were tested: IL-6, IL-10, IL-12p40, IFN-α, IFN-γ, IP-10, IL-1β and TNF-α.

Data set [7] has as its system human PBMCs. In words: IL-1β secretion from human PBMCs by ELISA (inflammasome activation). It is filed as cell-based. Conditions: 24 hours, FIG. 15. (ELISA stands for enzyme-linked immunosorbent assay.)
Data set [8] relates to canonical NF-κB promoter reporter. In words: Canonical NF-κB promoter reporter construct in RAW264.7 macrophage cells (FIG. 10). The class given is cell-based, mouse. Conditions: 24 hrs. The method, then: Mouse RAW264.7 macrophage cells containing a reporter construct driven by a canonical NF-κB promoter were plated in 96-well plates at 50,000 cells/well. […] The supernatant was harvested and tested for optical density.

Data set [9] relates to CD19+ B-cells in human PBMCs. In words: B-cell activation in human PBMCs, CD86 expression on CD19+ B-cells by FACS. The class given is cell-based. The following applies: 24 h, FIG. 7. The method, then:
PBMC were incubated on ice in the presence of Fc-Block (BD Pharmingen) for 20 minutes, washed, and incubated with antibodies specific for surface molecules or isotype-matched control mAbs. APC-Cy7 labeled anti-human CD19 mAb and PE-labeled anti-human CD86 mAb were purchased from BioLegend. The stained cells were then subjected to FACS (FACSCanto, BD Biosciences) using the FACSDiva software. FACS analysis was performed using FlowJo software. Single, viable cells in the CD19+ B-cells gates were used for analysis. The flow cytometric results are expressed as the percentage of CD86-expressing cells (FIG. 7A) as the mean fluorescence intensity (MFI) of CD86-expressing cells in each gate (FIG. 7B).
On the technique in general: Flow cytometry measures light scatter and fluorescence of single cells or particles in a stream.

T2 sequence (Q9HC29 whole entry, species assumed): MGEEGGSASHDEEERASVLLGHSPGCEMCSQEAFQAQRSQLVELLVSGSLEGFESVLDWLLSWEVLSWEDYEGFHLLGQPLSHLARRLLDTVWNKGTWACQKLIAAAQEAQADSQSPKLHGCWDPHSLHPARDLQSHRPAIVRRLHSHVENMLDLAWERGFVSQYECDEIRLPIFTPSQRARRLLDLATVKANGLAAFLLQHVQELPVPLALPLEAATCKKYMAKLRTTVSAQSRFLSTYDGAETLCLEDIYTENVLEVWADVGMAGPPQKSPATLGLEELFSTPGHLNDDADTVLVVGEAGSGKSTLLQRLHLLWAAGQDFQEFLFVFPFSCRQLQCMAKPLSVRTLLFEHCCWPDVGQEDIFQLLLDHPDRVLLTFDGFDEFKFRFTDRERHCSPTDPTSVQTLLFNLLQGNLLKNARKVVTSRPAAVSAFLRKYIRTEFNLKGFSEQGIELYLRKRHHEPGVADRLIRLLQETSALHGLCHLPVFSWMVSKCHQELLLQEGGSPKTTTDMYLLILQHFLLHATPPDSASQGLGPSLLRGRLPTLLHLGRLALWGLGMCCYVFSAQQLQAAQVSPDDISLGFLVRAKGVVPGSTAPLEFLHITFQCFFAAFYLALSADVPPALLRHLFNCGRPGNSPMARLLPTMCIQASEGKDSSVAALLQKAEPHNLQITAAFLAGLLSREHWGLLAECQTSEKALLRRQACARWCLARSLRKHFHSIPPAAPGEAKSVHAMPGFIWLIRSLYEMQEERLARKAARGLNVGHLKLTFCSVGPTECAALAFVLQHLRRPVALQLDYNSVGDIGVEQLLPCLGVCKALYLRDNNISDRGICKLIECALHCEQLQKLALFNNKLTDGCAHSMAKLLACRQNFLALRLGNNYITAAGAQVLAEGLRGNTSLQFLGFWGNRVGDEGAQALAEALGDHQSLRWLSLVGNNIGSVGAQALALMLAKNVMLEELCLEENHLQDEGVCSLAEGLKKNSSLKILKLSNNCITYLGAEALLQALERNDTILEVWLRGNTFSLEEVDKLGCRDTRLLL

`CCN(CCO)CCCC(C)Nc1ccnc2cc(Cl)ccc12` (stereo not drawn) [HCQ, hydroxychloroquine]: the “increase of COMPOUND (I) induced ICOS-L expression by HCQ” value was 7.3 fold in [1] (HCQ 10 μM + COMPOUND (I) 1 μM, FIG. 6A); 2.0 fold in data set [1] (HCQ 10 μM + COMPOUND (I) 1 μM, FIG. 6B); 7.1 fold in [1] (HCQ 10 μM + COMPOUND (I) 10 μM, FIG. 6A); 1.9 fold in data set [1] (HCQ 10 μM + COMPOUND (I) 10 μM, FIG. 6B). Besides, the “ICOS-L expression, agent alone” value in data set [1] (human pDCs, COMPOUND (I) 1 μM and 10 μM by itself, HCQ 10 μM alone) was “did not induce measurable levels”. Besides, the “effect on COMPOUND (I) activity on NF-κB reporter gene” value in data set [2] was “inhibited”.
Turning to `CCCCCCCCCCCCCCCCCC(=O)OCC1OC(O)C(NC(C)=O)C(OC(C)C(=O)NC(C)C(=O)NC(CCC(=O)O)C(N)=O)C1O` [L-18 MDP], in data set [3], the “stimulation of IL-1β secretion from human PBMCs” value is “about 51 fold”. Further, the “more efficient NF-κB activator than MDP” value in [4] is given as 10 fold.
In the case of “ODN301C: 5′-GTAGCCCCATCACCCAGCAGC-3′, fully PS, GC-containing (DNA dG*dT*dA*dG*dC*dC*dC*dC*dA*dT*dC*dA*dC*dC*dC*dA*dG*dC*dA*dG*dC)”, the TGF-β1 protein induction entry in [5] is “can induce”. The “IFNα secretion from PBMCs” value in [6] (any tested concentration between 0.01 μM and 10 μM, FIG. 25) is recorded as “not found to induce”. In [6] (high-dose ODN 10 μM), this compound had an IFN-γ of 0 pg/mL, an IL-1β of 1.9 pg/mL, an IL-6 of 3.3 fold change and an IL-10 of 1 fold change. For the same compound, in data set [6] (high-dose ODN 10 μM), the IL-12p40 is 0.8 pg/mL, the IP10 came out at 0.25 fold change and the TNF-α is listed as 2.8 fold change. In [6] (low-dose ODN 0.1 μM), this compound displayed an IFN-γ of 0 pg/mL, an IL-1β of 0.1 pg/mL, an IL-6 of 1.3 fold change and an IL-10 of 1 fold change. In data set [6] (low-dose ODN 0.1 μM), this compound displayed an IL-12p40 of 0 pg/mL, an IP10 of 1.1 fold change and a TNF-α of 1.1 fold change. Further, the PD-L1 protein induction entry in data set [1] (human pDCs) is given as “can induce”. Further, the IL-1β induction result in data set [7] was “induce”.
For the compound “ODN302: 5′-GTCGCTCTTCTCCTCCGCCAG-3′, fully PS; scrambled (non-SMAD7 AON) control sequence with two CG sequences (DNA dG*dT*dC*dG*dC*dT*dC*dT*dT*dC*dT*dC*dC*dT*dC*dC*dG*dC*dC*dA*dG)”, the TGF-β1 protein induction entry in data set [5] is listed as “can induce”. In data set [6] (high-dose ODN 10 μM), the IFN-γ stood at 9.7 pg/mL, the IL-1β worked out at 3.9 pg/mL, the IL-6 is 41 fold change and the IL-10 came out at 1.5 fold change. In data set [6] (high-dose ODN 10 μM), this compound registered an IL-12p40 of 5.2 pg/mL, an IP10 of 4.4 fold change and a TNF-α of 9.3 fold change. In [6] (low-dose ODN 0.1 μM), this compound displayed an IFN-γ of 1.5 pg/mL, an IL-1β of 0.2 pg/mL, an IL-6 of 19 fold change and an IL-10 of 1.5 fold change. In addition, in [6] (low-dose ODN 0.1 μM), the IL-12p40 came to 0.7 pg/mL, the IP10 is 13.9 fold change and the TNF-α was found to be 2.4 fold change. In addition, in data set [1] (human pDCs), the PD-L1 protein induction entry is “can induce”. For the same compound, the “activation of the NF-κB construct” value in data set [8] (0.1-100 μM) was “Moderate activation”. The “ODN concentration at which activation of the NF-κB construct was observed” value in data set [8] is on record as “about 1 μM”.
“ODN2137: 5′-TGCTGCTTTTGTGCTTTTGTGCTT-3′, fully PS, GC-containing (DNA dT*dG*dC*dT*dG*dC*dT*dT*dT*dT*dG*dT*dG*dC*dT*dT*dT*dT*dG*dT*dG*dC*dT*dT)”: the “B-cell activation (CD86 upregulation)” value in [9] is on record as “Stronger”.
